Active and inactive are the calls of the source. The calls are words filed in the database; no cut-off is given here.
How the values were obtained:
[1] = biological target: T1, Tyrosine-protein phosphatase non-receptor type 1 (Homo sapiens, UniProt P18031); assay: Inhibition of PTP1B (unknown origin) using pNPP as substrate incubated for 30 mins
T1 sequence (P18031 whole entry): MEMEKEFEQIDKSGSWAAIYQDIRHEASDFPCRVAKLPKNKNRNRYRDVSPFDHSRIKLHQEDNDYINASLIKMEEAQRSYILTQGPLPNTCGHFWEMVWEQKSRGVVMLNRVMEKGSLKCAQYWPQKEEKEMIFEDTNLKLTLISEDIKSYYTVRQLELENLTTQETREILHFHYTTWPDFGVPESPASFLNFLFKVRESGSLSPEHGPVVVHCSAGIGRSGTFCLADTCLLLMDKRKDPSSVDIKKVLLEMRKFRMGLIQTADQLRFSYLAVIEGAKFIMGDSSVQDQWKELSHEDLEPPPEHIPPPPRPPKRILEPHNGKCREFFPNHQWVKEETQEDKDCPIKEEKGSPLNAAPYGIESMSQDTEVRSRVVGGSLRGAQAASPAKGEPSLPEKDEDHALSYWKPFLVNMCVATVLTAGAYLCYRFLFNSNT

ATP-citrate synthase = biological target: T2, ATP-citrate synthase (Homo sapiens, UniProt P53396); assay: Inhibition of ACL (unknown origin)
T2 sequence (P53396 whole entry): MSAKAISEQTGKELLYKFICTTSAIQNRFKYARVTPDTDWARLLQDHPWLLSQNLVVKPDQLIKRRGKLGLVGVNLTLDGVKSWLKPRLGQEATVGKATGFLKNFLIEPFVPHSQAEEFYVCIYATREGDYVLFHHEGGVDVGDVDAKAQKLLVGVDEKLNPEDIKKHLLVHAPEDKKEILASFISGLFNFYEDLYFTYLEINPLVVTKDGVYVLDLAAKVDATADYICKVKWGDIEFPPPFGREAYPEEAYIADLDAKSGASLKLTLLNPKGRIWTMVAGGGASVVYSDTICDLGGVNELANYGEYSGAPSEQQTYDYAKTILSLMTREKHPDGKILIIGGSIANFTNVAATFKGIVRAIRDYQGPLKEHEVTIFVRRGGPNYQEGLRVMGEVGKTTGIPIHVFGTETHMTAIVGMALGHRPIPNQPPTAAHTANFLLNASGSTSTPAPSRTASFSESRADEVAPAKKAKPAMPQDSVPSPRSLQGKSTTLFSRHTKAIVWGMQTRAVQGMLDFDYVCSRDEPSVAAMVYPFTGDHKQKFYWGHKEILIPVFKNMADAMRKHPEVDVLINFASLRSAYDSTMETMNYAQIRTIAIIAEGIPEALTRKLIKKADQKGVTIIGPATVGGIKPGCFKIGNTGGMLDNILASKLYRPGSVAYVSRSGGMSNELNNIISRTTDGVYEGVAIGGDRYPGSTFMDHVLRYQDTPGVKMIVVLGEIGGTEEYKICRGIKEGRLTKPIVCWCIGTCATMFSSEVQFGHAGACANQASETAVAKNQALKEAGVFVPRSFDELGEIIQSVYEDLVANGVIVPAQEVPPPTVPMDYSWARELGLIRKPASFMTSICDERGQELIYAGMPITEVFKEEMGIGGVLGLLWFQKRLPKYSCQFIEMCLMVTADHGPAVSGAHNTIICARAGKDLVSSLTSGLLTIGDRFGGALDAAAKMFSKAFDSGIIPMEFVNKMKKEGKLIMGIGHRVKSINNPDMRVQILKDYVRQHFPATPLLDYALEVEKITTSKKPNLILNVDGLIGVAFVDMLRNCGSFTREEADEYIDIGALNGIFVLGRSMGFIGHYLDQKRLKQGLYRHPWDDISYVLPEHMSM

[2] = biological target: Tyrosine-protein phosphatase non-receptor type 6 (Homo sapiens, UniProt P29350); assay: Inhibition of SHP1 (unknown origin)
Chain of Tyrosine-protein phosphatase non-receptor type 6 (P29350 whole entry): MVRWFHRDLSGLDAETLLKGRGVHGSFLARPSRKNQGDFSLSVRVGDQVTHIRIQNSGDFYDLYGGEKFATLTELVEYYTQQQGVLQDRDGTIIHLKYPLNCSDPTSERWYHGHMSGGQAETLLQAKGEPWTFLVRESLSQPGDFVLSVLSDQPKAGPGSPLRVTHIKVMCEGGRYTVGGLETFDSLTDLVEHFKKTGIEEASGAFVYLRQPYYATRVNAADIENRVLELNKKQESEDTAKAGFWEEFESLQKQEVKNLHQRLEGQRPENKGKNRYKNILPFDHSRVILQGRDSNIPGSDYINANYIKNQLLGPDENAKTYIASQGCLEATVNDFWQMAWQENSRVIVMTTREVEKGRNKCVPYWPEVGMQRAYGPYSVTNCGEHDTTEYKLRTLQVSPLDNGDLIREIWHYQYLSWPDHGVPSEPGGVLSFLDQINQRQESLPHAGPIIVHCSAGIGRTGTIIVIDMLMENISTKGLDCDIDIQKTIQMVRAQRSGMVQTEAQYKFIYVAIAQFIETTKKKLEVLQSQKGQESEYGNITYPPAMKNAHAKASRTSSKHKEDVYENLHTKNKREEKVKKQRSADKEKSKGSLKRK

[3] = biological target: T3, Tyrosine-protein phosphatase non-receptor type 11 (Homo sapiens) (UniProt Q06124); assay: Inhibition of SHP2 (unknown origin)
T3 sequence (whole entry): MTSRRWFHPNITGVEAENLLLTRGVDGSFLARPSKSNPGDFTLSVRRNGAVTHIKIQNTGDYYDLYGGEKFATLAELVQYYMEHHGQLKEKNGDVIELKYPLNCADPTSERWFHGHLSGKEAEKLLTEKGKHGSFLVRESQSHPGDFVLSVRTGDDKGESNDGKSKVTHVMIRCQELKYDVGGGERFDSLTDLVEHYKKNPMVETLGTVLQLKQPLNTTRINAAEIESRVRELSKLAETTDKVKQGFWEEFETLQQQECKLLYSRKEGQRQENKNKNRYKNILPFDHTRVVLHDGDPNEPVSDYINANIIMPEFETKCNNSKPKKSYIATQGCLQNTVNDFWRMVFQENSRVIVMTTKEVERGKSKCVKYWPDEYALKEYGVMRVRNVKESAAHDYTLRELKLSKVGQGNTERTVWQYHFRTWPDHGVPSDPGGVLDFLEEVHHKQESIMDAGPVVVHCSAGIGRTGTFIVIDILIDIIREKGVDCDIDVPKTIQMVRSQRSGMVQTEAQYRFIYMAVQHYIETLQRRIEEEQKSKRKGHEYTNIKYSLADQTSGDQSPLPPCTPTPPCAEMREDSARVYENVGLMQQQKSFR

[4] = biological target: Tyrosine-protein kinase JAK2 (Homo sapiens) (UniProt O60674); assay: Inhibition of JAK2 (unknown origin)
Chain of Tyrosine-protein kinase JAK2 (Homo sapiens) (O60674 whole entry): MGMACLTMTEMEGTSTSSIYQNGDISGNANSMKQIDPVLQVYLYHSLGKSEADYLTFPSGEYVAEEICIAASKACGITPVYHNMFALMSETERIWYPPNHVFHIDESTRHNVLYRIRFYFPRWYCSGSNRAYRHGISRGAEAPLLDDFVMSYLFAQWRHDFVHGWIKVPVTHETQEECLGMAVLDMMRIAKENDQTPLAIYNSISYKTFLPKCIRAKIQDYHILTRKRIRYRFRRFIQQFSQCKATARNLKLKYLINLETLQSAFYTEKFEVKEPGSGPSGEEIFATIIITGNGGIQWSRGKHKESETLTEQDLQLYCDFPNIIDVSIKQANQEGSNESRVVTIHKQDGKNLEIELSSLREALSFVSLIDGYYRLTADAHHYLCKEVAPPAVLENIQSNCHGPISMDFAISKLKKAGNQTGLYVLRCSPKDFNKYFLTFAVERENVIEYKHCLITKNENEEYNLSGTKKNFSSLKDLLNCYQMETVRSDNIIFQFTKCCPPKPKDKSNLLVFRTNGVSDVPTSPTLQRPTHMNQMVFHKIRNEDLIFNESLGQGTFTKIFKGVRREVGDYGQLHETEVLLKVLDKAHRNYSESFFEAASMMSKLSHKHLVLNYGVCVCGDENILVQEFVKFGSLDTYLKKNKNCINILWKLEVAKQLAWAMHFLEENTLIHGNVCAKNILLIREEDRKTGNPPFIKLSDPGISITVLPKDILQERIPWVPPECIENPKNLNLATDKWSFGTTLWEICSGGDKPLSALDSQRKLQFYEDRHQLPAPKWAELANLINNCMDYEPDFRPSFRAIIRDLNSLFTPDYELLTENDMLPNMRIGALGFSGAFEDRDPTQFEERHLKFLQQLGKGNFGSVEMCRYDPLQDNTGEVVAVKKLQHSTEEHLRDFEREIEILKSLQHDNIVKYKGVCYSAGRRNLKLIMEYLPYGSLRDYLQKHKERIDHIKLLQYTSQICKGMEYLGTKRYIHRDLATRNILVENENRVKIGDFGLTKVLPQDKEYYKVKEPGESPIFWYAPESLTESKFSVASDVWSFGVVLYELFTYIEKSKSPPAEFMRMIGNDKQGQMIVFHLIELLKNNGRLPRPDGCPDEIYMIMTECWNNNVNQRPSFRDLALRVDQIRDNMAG

[5] = biological target: Acetyl-CoA carboxylase 1 (Homo sapiens) (UniProt Q13085); assay: Inhibition of ACC1 (unknown origin)
A-375 = assay: Cytotoxicity against human A375 cells assessed as reduction in cell viability at 32 uM incubated for 72 hrs by CCK8 assay; assay type: cell-based; details: a-375, 72 h
HEK293 = assay: Cytotoxicity against human HEK293 cells assessed as reduction in cell viability at 32 uM incubated for 72 hrs by CCK8 assay; assay type: cell-based; details: hek293, 72 h

SMILES: C=C1CCC[C@H]2[C@](C)(Cc3cc(O)cc4nc5n(c34)CCC5)[C@@H](C)CC[C@]12C
- IC50 [1]: 2.8 to 27 µM
- IC50 (ATP-citrate synthase): 2.8 to 27 µM
- IC50 [2]: 2.8 to 27 µM
- inhibition [3]: inactive
- inhibition [4]: inactive
- inhibition [5]: inactive
- Activity (A-375): Non-Toxic

SMILES: CC(=O)Nc1ccc(O)c(C[C@]2(C)[C@@H](C)CC[C@]3(C)C(C)=CCC[C@@H]23)c1
- inhibition [3]: inactive
- inhibition [4]: inactive
- inhibition [5]: inactive
- Activity (A-375): Non-Toxic
- Activity (HEK293): Non-Toxic

SMILES: CC1=CCC[C@H]2[C@](C)(Cc3cc(O)cc4nc5n(c34)CCC5)[C@@H](C)CC[C@]12C
- IC50 [1]: 2.8 to 27 µM
- IC50 (ATP-citrate synthase): 2.8 to 27 µM
- IC50 [2]: 2.8 to 27 µM
- inhibition [3]: inactive
- inhibition [4]: inactive
- inhibition [5]: inactive
- Activity (A-375): Non-Toxic

SMILES: CC1=CCC[C@H]2[C@](C)(Cc3cc(O)cc4[nH]c(=O)oc34)[C@@H](C)CC[C@]12C
- IC50 [1]: 2.8 to 27 µM
- IC50 (ATP-citrate synthase): 2.8 to 27 µM
- IC50 [2]: 2.8 to 27 µM
- inhibition [3]: inactive
- inhibition [4]: inactive
- inhibition [5]: inactive
- Activity (A-375): Non-Toxic
- Activity (HEK293): Non-Toxic

SMILES: CC1=CCC[C@H]2[C@](C)(Cc3cc(N4CCCC4=O)ccc3O)[C@@H](C)CC[C@]12C
- inhibition [3]: inactive
- inhibition [4]: inactive
- inhibition [5]: inactive
- Activity (A-375): Non-Toxic
- Activity (HEK293): Non-Toxic

SMILES: CC1=CCC[C@H]2[C@](C)(Cc3cc(NC(=O)CC(C)C)ccc3O)[C@@H](C)CC[C@]12C
- inhibition [3]: inactive
- inhibition [4]: inactive
- inhibition [5]: inactive
- Activity (A-375): Non-Toxic

SMILES: CC1=CCC[C@H]2[C@](C)(Cc3cc(O)cc4nc(C)oc34)[C@@H](C)CC[C@]12C
- inhibition [3]: inactive
- inhibition [4]: inactive
- inhibition [5]: inactive
- Activity (A-375): Non-Toxic
- Activity (HEK293): Non-Toxic

SMILES: C=C1CCC[C@H]2[C@](C)(Cc3cc(O)cc4nc(C)oc34)[C@@H](C)CC[C@]12C
- inhibition [3]: inactive
- inhibition [4]: inactive
- inhibition [5]: inactive
- Activity (A-375): Non-Toxic
- Activity (HEK293): Non-Toxic

SMILES: CC1=CCC[C@H]2[C@](C)(Cc3cc(O)cc4c3oc(=O)n4C)[C@@H](C)CC[C@]12C
- inhibition [3]: inactive
- inhibition [4]: inactive
- inhibition [5]: inactive
- Activity (A-375): Non-Toxic
- Activity (HEK293): Non-Toxic

SMILES: CC1=CCC[C@H]2[C@](C)(Cc3cc(O)cc4ncoc34)[C@@H](C)CC[C@]12C
- IC50 [1]: 2.8 to 27 µM
- IC50 (ATP-citrate synthase): 2.8 to 27 µM
- IC50 [2]: 2.8 to 27 µM
- inhibition [3]: inactive
- inhibition [4]: inactive
- inhibition [5]: inactive
- Activity (A-375): Non-Toxic
- Activity (HEK293): Non-Toxic

SMILES: CC1=CCC[C@H]2[C@](C)(Cc3cc(-n4cccc4C=O)ccc3O)[C@@H](C)CC[C@]12C
- inhibition [3]: inactive
- inhibition [4]: inactive
- inhibition [5]: inactive
- Activity (A-375): Non-Toxic
- Activity (HEK293): Non-Toxic

Source: ChEMBL document CHEMBL4414588, “Cinerols, Nitrogenous Meroterpenoids from the Marine Sponge Dysidea cinerea” (J Nat Prod, 2019)
